Laboratory results taken from ChEMBL document CHEMBL5465560, “Selectivity Literature for EUbOPEN Chemogenomic Library” (2024).

Experiments:
[1] = biological target: Vascular endothelial growth factor receptor 3 (Homo sapiens, UniProt P35916); test: Selectivity interaction (KinomeScan (DiscoverX)) EUB0001049a FLT4; conditions: at 1 µM
[2] = biological target: Histone acetyltransferase KAT2A (Homo sapiens) (UniProt Q92830); test: Selectivity interaction (Human bromodomain panel (DSF assay)) EUB0000233b KAT2A
[3] = biological target: Tyrosine-protein kinase Fgr (Homo sapiens) (UniProt P09769); conditions: at 10 µM
[4] = biological target: Histone-lysine N-methyltransferase, H3 lysine-79 specific (Homo sapiens, UniProt Q8TEK3); test: Selectivity interaction (Transferase panel (protein, RNA, and DNA methyltransferases. and EP300 (acetyltransferase))) EUB0000270b DOT1L
[5] = biological target: T1, Calcium/calmodulin-dependent protein kinase type IV (Homo sapiens) (UniProt Q16566); test: Selectivity interaction (KinomeScan (DiscoverX)) EUB0000618a CAMK4; conditions: at 10 µM
T1 sequence (whole entry): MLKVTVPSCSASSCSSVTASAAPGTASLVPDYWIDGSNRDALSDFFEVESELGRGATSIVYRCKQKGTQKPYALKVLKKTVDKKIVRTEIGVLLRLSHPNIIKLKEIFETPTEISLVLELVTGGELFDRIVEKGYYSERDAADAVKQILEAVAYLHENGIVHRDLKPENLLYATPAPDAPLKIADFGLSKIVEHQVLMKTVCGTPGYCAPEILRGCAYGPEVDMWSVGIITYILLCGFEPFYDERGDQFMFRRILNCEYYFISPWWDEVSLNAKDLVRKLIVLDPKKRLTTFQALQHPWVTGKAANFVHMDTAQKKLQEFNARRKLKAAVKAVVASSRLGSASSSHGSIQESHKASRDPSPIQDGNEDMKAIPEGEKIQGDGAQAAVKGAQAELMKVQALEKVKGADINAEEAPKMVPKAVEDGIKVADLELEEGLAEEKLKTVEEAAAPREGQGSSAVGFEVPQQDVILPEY

[6] = biological target: T2, Uncharacterized serine/threonine-protein kinase SBK3 (Homo sapiens) (UniProt P0C264); conditions: at 10 µM
T2 sequence (whole entry): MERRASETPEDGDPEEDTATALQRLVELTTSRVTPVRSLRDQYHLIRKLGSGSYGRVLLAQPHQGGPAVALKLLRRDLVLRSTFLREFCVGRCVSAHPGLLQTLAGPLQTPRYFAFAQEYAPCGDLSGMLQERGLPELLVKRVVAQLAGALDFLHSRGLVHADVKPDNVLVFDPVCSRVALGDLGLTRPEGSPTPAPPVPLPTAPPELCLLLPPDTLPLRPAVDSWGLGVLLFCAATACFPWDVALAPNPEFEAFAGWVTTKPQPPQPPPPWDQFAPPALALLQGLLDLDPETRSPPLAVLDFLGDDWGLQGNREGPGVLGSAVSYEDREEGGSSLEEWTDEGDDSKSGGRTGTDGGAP

[7] = biological target: Serine/threonine-protein kinase PLK2 (Homo sapiens, UniProt Q9NYY3)
[8] = biological target: Phosphatidylinositol 4,5-bisphosphate 3-kinase catalytic subunit beta isoform (Homo sapiens) (UniProt P42338); test: Selectivity interaction (KinomeScan (DiscoverX)) EUB0000695a PIK3CB; conditions: at 100 nM
[9] = biological target: T3, Ephrin type-B receptor 2 (Homo sapiens) (UniProt P29323); test: Selectivity interaction (Kinase panel (Z-LYTE Assay)) EUB0001632a EPHB2; conditions: at 10 µM
T3 sequence (whole entry): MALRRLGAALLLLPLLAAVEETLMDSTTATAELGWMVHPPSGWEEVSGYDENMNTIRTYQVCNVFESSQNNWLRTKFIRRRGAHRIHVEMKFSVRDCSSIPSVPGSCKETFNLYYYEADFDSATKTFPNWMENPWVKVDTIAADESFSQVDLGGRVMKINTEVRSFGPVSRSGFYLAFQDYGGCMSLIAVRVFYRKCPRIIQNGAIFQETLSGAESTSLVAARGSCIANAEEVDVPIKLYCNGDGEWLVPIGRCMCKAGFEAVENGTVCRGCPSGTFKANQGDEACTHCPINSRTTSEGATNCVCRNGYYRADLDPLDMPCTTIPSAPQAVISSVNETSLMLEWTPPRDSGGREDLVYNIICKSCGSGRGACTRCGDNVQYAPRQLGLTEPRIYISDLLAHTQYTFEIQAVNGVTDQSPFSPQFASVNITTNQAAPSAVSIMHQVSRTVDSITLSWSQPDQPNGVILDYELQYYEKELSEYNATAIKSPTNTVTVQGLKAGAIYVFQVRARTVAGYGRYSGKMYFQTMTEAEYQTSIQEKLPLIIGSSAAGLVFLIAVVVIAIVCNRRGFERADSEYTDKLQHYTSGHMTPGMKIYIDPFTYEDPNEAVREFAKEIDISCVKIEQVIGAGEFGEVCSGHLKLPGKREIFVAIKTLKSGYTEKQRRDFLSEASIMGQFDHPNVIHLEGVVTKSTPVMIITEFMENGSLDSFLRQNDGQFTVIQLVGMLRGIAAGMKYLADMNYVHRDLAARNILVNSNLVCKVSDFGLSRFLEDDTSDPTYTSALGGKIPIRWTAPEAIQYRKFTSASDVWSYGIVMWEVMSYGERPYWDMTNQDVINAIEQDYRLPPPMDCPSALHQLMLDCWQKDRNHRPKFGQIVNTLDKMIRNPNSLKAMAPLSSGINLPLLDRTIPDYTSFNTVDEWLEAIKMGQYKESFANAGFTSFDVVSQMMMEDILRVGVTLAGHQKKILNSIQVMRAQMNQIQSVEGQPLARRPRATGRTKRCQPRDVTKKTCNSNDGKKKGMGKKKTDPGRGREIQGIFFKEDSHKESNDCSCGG

[10] = biological target: T4, Dual specificity mitogen-activated protein kinase kinase 5 (Homo sapiens) (UniProt Q13163); test: Selectivity interaction (ProQinase) EUB0000171b MAP2K5
T4 sequence (whole entry): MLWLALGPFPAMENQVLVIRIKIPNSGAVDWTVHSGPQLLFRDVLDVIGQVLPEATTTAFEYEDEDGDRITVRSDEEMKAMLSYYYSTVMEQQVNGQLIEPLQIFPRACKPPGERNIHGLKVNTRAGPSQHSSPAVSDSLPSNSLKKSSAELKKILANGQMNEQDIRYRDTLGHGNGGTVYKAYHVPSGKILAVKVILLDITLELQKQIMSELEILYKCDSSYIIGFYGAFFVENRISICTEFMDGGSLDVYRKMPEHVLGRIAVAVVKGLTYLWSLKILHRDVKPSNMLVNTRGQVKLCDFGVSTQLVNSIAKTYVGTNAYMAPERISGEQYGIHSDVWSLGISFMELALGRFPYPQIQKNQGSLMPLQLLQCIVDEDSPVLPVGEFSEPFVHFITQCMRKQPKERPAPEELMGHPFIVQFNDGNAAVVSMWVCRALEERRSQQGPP

Histone-lysine N-methyltransferase, H3 lysine-79 specific, sequence (Q8TEK3 whole entry, looked up): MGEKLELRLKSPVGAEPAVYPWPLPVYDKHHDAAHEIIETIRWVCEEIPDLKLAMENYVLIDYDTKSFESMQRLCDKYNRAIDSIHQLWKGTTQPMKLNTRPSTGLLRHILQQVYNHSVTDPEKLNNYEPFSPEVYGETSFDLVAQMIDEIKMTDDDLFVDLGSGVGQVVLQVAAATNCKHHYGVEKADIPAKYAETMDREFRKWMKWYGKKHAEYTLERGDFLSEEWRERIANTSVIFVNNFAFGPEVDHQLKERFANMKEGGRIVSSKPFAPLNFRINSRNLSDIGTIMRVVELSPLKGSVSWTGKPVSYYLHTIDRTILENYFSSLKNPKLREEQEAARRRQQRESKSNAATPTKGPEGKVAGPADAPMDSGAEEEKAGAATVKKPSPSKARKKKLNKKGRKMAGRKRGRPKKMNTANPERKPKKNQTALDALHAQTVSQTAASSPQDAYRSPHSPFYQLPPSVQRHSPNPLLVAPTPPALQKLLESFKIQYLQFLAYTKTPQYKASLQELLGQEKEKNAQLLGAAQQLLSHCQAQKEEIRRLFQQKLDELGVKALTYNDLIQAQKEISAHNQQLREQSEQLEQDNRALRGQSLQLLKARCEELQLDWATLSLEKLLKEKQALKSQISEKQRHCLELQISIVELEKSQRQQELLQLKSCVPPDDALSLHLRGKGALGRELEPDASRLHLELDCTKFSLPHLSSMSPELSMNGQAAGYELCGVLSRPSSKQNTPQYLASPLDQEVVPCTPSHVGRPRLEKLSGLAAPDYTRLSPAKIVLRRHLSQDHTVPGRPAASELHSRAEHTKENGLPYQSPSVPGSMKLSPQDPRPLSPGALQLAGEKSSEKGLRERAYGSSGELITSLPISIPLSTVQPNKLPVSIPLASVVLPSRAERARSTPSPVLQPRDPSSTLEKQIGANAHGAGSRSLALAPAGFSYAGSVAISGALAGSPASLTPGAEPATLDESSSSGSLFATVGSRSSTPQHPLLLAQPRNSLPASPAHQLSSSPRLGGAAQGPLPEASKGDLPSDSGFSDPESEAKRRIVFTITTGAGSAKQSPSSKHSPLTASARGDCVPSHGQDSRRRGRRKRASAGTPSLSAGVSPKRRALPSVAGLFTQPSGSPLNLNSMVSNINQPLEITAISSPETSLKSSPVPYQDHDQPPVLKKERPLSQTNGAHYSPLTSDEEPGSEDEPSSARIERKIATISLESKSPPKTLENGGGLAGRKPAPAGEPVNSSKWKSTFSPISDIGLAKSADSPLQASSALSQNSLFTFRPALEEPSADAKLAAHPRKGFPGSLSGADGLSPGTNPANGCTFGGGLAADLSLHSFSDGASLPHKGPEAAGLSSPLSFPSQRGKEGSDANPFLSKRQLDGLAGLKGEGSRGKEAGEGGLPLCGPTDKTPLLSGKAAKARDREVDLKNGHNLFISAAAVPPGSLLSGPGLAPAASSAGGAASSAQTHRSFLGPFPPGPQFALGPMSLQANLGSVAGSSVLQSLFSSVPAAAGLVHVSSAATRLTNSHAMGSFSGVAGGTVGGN
Histone acetyltransferase KAT2A (Homo sapiens), sequence (Q92830 2-837 limits assumed): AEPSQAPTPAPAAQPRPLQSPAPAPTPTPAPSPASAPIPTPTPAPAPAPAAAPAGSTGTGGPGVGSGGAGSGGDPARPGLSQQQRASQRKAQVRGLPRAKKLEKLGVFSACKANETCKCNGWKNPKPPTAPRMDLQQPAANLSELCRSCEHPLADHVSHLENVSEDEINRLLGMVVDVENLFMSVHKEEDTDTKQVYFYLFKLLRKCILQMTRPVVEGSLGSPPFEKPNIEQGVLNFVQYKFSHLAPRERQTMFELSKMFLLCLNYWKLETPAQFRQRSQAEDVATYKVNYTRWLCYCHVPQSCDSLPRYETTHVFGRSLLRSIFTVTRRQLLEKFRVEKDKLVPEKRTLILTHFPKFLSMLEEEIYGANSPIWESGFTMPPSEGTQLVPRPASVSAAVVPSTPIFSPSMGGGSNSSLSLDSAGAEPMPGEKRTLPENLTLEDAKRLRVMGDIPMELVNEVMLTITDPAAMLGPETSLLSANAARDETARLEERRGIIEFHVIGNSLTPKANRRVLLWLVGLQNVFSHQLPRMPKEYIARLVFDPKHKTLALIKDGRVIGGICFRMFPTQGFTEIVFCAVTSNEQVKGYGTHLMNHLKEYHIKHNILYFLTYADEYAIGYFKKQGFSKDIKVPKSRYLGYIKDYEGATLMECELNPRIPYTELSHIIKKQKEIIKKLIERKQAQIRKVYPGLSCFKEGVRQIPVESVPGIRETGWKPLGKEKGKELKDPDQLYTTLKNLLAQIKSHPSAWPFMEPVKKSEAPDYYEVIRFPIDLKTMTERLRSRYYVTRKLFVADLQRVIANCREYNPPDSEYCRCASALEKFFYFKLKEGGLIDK
Tyrosine-protein kinase Fgr (Homo sapiens), sequence (P09769 2-529 limits assumed): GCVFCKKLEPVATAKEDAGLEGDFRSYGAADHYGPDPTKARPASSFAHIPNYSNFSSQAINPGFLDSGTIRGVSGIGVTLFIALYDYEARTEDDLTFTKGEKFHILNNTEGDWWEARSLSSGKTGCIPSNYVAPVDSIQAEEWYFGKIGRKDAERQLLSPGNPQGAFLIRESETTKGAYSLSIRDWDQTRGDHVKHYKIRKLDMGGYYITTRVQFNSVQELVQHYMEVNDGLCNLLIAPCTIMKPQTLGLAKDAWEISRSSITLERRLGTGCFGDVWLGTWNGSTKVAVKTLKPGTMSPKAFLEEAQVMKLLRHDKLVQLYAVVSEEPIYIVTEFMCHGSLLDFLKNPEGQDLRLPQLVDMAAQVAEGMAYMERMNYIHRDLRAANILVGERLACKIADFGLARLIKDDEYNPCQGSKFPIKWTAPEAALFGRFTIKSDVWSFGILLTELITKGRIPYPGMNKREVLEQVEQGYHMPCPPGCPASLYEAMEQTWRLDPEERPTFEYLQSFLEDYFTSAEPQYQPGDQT
Vascular endothelial growth factor receptor 3, sequence (P35916 whole entry): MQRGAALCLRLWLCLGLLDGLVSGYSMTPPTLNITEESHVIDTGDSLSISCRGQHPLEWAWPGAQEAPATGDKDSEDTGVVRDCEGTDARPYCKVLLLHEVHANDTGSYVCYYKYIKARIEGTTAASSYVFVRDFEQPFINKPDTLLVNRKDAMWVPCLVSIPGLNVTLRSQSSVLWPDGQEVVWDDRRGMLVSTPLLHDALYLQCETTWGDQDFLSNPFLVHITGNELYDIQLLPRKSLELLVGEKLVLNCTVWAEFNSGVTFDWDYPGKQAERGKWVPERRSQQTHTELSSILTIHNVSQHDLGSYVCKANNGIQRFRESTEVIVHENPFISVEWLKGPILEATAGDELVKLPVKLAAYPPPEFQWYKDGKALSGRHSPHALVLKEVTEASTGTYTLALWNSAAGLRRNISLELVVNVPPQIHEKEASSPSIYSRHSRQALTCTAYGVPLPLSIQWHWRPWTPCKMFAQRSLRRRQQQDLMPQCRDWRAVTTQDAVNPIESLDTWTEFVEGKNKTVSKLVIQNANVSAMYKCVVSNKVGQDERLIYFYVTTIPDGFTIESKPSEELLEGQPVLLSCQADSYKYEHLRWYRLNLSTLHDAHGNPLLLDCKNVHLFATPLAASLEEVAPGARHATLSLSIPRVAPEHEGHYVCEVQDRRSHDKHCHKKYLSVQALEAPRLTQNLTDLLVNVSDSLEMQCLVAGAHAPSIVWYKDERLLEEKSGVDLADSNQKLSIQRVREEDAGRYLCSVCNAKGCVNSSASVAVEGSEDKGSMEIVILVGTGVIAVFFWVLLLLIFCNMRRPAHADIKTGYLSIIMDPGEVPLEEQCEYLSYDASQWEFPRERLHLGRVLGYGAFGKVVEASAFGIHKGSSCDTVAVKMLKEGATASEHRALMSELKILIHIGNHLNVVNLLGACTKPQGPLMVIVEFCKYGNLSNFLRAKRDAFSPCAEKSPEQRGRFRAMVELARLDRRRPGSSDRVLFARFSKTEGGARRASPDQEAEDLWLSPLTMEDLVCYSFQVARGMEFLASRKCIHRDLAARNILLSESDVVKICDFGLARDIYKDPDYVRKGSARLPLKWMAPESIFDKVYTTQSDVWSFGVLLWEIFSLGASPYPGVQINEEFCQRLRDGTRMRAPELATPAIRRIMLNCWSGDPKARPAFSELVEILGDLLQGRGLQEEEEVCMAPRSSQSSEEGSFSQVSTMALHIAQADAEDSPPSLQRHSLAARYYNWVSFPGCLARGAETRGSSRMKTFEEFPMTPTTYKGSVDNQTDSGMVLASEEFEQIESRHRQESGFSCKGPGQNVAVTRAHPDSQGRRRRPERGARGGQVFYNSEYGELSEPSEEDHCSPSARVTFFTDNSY
Serine/threonine-protein kinase PLK2, sequence (Q9NYY3 whole entry, canonical isoform): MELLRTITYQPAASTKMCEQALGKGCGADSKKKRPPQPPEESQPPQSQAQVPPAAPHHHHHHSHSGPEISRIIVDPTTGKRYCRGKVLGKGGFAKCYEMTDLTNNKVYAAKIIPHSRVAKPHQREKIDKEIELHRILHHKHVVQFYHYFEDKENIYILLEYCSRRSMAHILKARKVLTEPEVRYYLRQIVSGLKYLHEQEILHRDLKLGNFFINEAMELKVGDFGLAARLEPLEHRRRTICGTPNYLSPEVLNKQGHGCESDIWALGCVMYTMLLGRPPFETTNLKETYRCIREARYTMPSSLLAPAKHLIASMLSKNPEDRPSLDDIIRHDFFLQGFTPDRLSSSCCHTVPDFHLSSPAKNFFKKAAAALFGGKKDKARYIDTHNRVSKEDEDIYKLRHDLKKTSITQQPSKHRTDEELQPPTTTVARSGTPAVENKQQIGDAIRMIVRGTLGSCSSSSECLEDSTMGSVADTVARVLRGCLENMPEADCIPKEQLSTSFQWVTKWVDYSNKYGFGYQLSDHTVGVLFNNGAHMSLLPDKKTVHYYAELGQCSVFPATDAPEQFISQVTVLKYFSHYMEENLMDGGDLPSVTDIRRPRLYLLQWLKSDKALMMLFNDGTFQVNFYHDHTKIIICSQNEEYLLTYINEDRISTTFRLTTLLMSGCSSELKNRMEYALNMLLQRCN

COc1cc(Nc2nc(C)cc(-c3cnn4nc(OC)ccc34)n2)cc(C(F)(F)F)c1
% of control [1]: 89%

CN(C)CCCOc1ccc(-c2cc(NCCCn3cccn3)nc(S(C)(=O)=O)n2)cc1
dTM [2]: < 2 K

CCN(CC)CCCCNc1ncc2cc(-c3cc(OC)cc(OC)c3)c(NC(=O)NC(C)(C)C)nc2n1
% of control [3]: 100%

Cc1cc(CN)cc(C)c1-c1ncn(C)c1-c1cncn1C
% activity ([4]; at 1 µM): > 90% | % activity ([4]; at 10 µM): > 80%

O[C@H]1CC[C@H](Nc2ncc3nc(Nc4c(F)cc(F)cc4F)n([C@H]4CCOC4)c3n2)CC1
% of control [5]: 87%

Cc1cc([C@@H](C)Nc2ccccc2C(=O)O)c2nc(N3CCOCC3)cc(=O)n2c1 [AZD-6482]
% of control [6]: 100%

CCc1cccc(CC)c1NC(=O)c1nn(C)c2c1CCc1cnc(Nc3ccc(C(=O)NC4CCN(C)CC4)cc3OC(F)(F)F)nc1-2
IC50 [7]: > 10 µM

Cc1cc(F)c(C(=O)Nc2cccc(-c3nncn3C(C)C)n2)cc1-n1cnc(C2CC2)c1
% of control [8]: 100%

Cn1cc(-n2cnc3c(NCc4nc5cc(Cl)c(Cl)cc5[nH]4)nc(N4CCOCC4)nc32)cn1
% of control [9]: 1.86%

C=CC(=O)Nc1cccc(C(=O)Nc2ccc(Nc3cc(-c4[nH]c(SC)nc4C)ccn3)cc2)c1
% of control ([10]; at 1 µM): 87% | % of control ([10]; at 5 µM): 60%
